Results: patent publication US11523995B2, “Compositions and methods for ablating niche cells in testis and other epithelial cells and methods relating thereto” (Duke University, priority 2017, dated 2022)

These compounds were tested on Sertoli cells (assay: Inhibition of in vitro Sertoli cell ablation with BC by cell death pathway inhibitors). Settings: 30 min inhibitor pre-treatment, 10 min BC, culture with inhibitor 4 days, neonatal testis.
Format: cell-based, mouse
Protocol: Fragments of the mouse testis were incubated with 0.02% BC for 10 min. After washing several times with PBS, tissues were placed atop 1.5% agarose blocks (214530; Difco), prepared and placed in 6 well tissue culture plates (353046; Falcon) with ˜500 μl of 10% FBS+DMEM (11995-065; Gibco) to reach halfway up the side of the block. After culture, tissues were washed in PBS and fixed for immunofluorescence. The dog testis tissues were incubated with 0.02% or 0.03% BC for 10 min and cultured with 10% KnockOut Serum Replacement (KSR) (Invitrogen; 10828-028)+DMEM (Yokonishi, T., et al. Methods in Molecular Biology 927: 479-488 (2013)). The culture incubator was supplied with 5% (vol/vol) carbon dioxide in air and maintained at 37° C. Q-VD (OMe)-OPh (A8165; ApexBio), Necrostatin-1, Spautin-1 (Sigma; SML0440), 3-Methyladenine (Cayman; CAS 5142-23-4), LY294002 (Cayman; CAS 154447-36-6), Bafilomycin A1 (Cayman; CAS88899-55-2) were used as cell death inhibitors. Next, we investigated the Sertoli cell death pathway caused by BC treatment. Testes from neonatal pups were pre-treated with 1% DMSO (as a control) or with cell death pathway inhibitors, pan-caspase inhibitor, 2,6-difluorophenoxymethylketone-based inhibitor (Q-VD-OPH), necrosis inhibitor (Necrostatin-1) and autophagy inhibitors, Spautin-1, LY294002, or Bafilomycin A1, for 30 min. Pre-treatments were followed by a 10 min BC treatment, washing, and culture in the presence of the inhibitor for 4 days (FIG. 3).

Compound	rescue of Sertoli cells after BC treatment
CN1C(=O)C(Cc2c[nH]c3ccccc23)NC1=S (centres unmarked) [Necrostatin-1]	did not rescue Sertoli cells
Fc1ccc(CNc2ncnc3ccc(F)cc23)cc1 [Spautin-1]	partially rescued Sertoli cells
Cn1cnc(N)c2ncnc1-2 [3MA, 3-Methyladenine]	partially rescued Sertoli cells
COC(=O)C[C@H](NC(=O)[C@@H](NC(=O)c1ccc2ccccc2n1)C(C)C)C(=O)COc1c(F)cccc1F [Q-VD-OPH]	did not rescue Sertoli cells
CO/C1=C\C(C)=C\[C@@H](C)[C@@H](O)[C@@H](C)C/C(C)=C/C=C/[C@H](OC)[C@@H]([C@@H](C)[C@@H](O)[C@H](C)[C@@]2(O)C[C@@H](O)[C@H](C)[C@@H](C(C)C)O2)OC1=O [Bafilomycin A1]	partially rescued Sertoli cells
